Laboratory results taken from ChEMBL document CHEMBL3588788, “Structure-activity relationship of hybrids of Cinchona alkaloids and bile acids with in vitro antiplasmodial and antitrypanosomal activities” (Eur J Med Chem, 2015).

Assays:
Plasmodium falciparum [1] = experiment: Antiplasmodial activity against Plasmodium falciparum 3D7 assessed as reduction in parasite viability by parasite lactate dehydrogenase assay; assay type: functional, organism-based
[2] = Cytotoxicity against human WI38 cells assessed as inhibition of cell growth at 100 ug/ml by MTT assay; assay type: cell-based, WI-38
[3] = Cytotoxicity against human WI38 cells assessed as inhibition of cell growth at 20 ug/ml by MTT assay; assay type: cell-based, WI-38
[4] = system: Trypanosoma brucei brucei; experiment: Antitrypanosomal activity against Trypanosoma brucei brucei Lister 427 bloodstream forms assessed as inhibition of parasite growth at 100 ug/ml by microtiter plate based assay; assay type: functional
[5] = system: Trypanosoma brucei brucei; experiment: Antitrypanosomal activity against Trypanosoma brucei brucei Lister 427 bloodstream forms assessed as inhibition of parasite growth at 20 ug/ml by microtiter plate based assay; assay type: functional
Plasmodium falciparum [6] = experiment: Antiplasmodial activity against Plasmodium falciparum 3D7 assessed as inhibition of parasite viability at 100 ug/ml by parasite lactate dehydrogenase assay; assay type: functional
Plasmodium falciparum [7] = experiment: Antiplasmodial activity against Plasmodium falciparum 3D7 assessed as inhibition of parasite viability at 20 ug/ml by parasite lactate dehydrogenase assay; assay type: functional
[8] = Cytotoxicity against human WI38 cells by MTT assay; assay type: cell-based, WI-38
[9] = system: Trypanosoma brucei brucei; experiment: Antitrypanosomal activity against Trypanosoma brucei brucei Lister 427 bloodstream forms by microtiter plate based assay; assay type: functional, organism-based
[10] = system: Trypanosoma brucei brucei; experiment: Potency index, ratio of IC50 for QN to IC50 for test compound against Trypanosoma brucei brucei Lister 427 bloodstream forms by microtiter plate based assay; assay type: functional
[11] = Selectivity index, ratio of IC50 against human WI38 cells to IC50 for Plasmodium falciparum 3D7; assay type: toxicity, cell-based, WI-38; conditions: read-out: Ratio IC50
Plasmodium falciparum [12] = experiment: Potency index, ratio of IC50 for QN to IC50 for test compound against Plasmodium falciparum 3D7 by parasite lactate dehydrogenase assay; assay type: functional
in vitro = conditions: human, WI38 cells
Description: Selectivity index, ratio of IC50 against human WI38 cells to IC50 for Trypanosoma brucei brucei Lister 427 bloodstream forms

[13] = Homo sapiens, WI-38, read-out: IC50

Structure (SMILES)	IC50 (Plasmodium falciparum [1]) [µM]	inhibition at 100 ug/ml [2] [%]	inhibition at 20 ug/ml [3] [%]	inhibition at 100 µg/mL [4] [%]	inhibition at 20 µg/mL [5] [%]	inhibition at 100 µg/mL (Plasmodium falciparum [6]) [%]	inhibition at 20 µg/mL (Plasmodium falciparum [7]) [%]	IC50 [8, 13] [µM]	IC50 [9] [µM]	Ratio IC50 [10]	selectivity ratio [11]	Ratio IC50 (Plasmodium falciparum [12])	selectivity ratio (in vitro)	IC50 ([8]; wi-38)
CC(=O)O[C@@H]1CC[C@@]2(C)[C@H](CC[C@@H]3[C@@H]2CC[C@]2(C)[C@@H]([C@H](C)CCC(=O)O)CC[C@@H]32)C1	59.5	98	27	100	15	100	70	–	–	–	–	–	–	–
CC(=O)O[C@@H]1CC[C@@]2(C)[C@@H](C1)C[C@@H](OC(C)=O)[C@@H]1[C@@H]2CC[C@]2(C)[C@@H]([C@H](C)CCC(=O)O)CC[C@@H]12	21	98	57	100	99	90	59	16.8	12.5	–	–	–	–	–
CC(=O)O[C@@H]1CC[C@]2(C)[C@H]3CC[C@]4(C)[C@@H]([C@H](C)CCC(=O)O)CC[C@H]4[C@@H]3C[C@H](OC(C)=O)[C@@H]2C1	32.7	98	20	100	81	97	73	–	16.3	–	–	–	–	–
CC(=O)O[C@@H]1CC[C@@]2(C)[C@@H](C1)[C@@H](OC(C)=O)[C@@H](OC(C)=O)[C@@H]1[C@@H]2CC[C@]2(C)[C@@H]([C@H](C)CCC(=O)O)CC[C@@H]12	8.1	96	9	100	83	97	88	–	5.6	–	–	–	–	–
CC(=O)O[C@@H]1CC[C@@]2(C)[C@H](CC[C@@H]3[C@@H]2C[C@H](OC(C)=O)[C@]2(C)[C@@H]([C@H](C)CCC(=O)O)CC[C@@H]32)C1	30.5	98	10	100	36	100	82	–	–	–	–	–	–	–
CC(=O)O[C@@H]1CC[C@@]2(C)[C@@H](C1)C[C@@H](OC(C)=O)[C@@H]1[C@@H]2C[C@H](OC(C)=O)[C@]2(C)[C@@H]([C@H](C)CCC(=O)O)CC[C@@H]12	22.5	29	12	100	15	100	68	–	–	–	–	–	–	–
C=C[C@H]1CN2CC[C@H]1C[C@H]2[C@H](O)c1cc(CC[C@@H](C)[C@H]2CC[C@H]3[C@@H]4[C@H](O)[C@H](O)[C@@H]5C[C@H](O)CC[C@]5(C)[C@H]4CC[C@]23C)nc2ccc(OC)cc12	0.275	–	–	–	–	–	–	5.55	0.76	27.8	20	2.3	7.3	–
C=C[C@H]1CN2CC[C@H]1C[C@H]2[C@H](O)c1cc(CC[C@@H](C)[C@H]2CC[C@H]3[C@@H]4CC[C@@H]5C[C@H](O)CC[C@]5(C)[C@H]4C[C@H](O)[C@]23C)nc2ccc(OC)cc12	0.241	–	–	–	–	–	–	5.2	0.64	33.3	22	2.6	8.2	–
C=C[C@H]1CN2CC[C@H]1C[C@H]2[C@H](O)c1cc(CC[C@@H](C)[C@H]2CC[C@H]3[C@@H]4[C@H](O)C[C@@H]5C[C@H](O)CC[C@]5(C)[C@H]4C[C@H](O)[C@]23C)nc2ccc(OC)cc12	1.82	–	–	–	–	–	–	19.3	1.57	13.5	11	0.3	12.3	–
C[C@@H]1CC[C@H]2[C@@H](C)C(=O)O[C@@H]3O[C@@]4(C)CC[C@@H]1[C@]32OO4 [ARTEMISININ]	0.0362	–	–	–	–	–	–	–	–	–	–	–	–	Not Active
CC[C@@]1(O)C(=O)OCc2c1cc1n(c2=O)Cc2cc3ccccc3nc2-1 [CAMPTOTHECIN]	–	–	–	–	–	–	–	0.23	–	–	–	–	–	–
C[C@H](CCC(=O)O)[C@H]1CC[C@H]2[C@@H]3[C@H](O)C[C@@H]4C[C@H](O)CC[C@]4(C)[C@H]3CC[C@]12C [CHENODIOL]	18.9	94	27	100	11	98	77	–	–	–	–	–	–	–
C[C@H](CCC(=O)O)[C@H]1CC[C@H]2[C@@H]3[C@H](O)C[C@@H]4C[C@H](O)CC[C@]4(C)[C@H]3C[C@H](O)[C@]12C [CHOLIC ACID]	133	–	6	24	20	83	56	–	–	–	–	–	–	–
C=C[C@H]1CN2CC[C@H]1C[C@H]2[C@H](O)c1ccnc2ccccc12 [CINCHONIDINE]	0.963	–	–	–	–	–	–	> 68	–	–	> 71	–	–	–
C=C[C@H]1CN2CC[C@H]1C[C@@H]2[C@@H](O)c1ccnc2ccccc12 [CINCHONINE]	0.292	–	–	–	–	–	–	> 68	> 68	–	> 222	–	–	–
C[C@H](CCC(=O)O)[C@H]1CC[C@H]2[C@@H]3CC[C@@H]4C[C@H](O)CC[C@]4(C)[C@H]3C[C@H](O)[C@]12C [DEOXYCHOLIC ACID]	93.6	50	9	100	2	100	59	–	–	–	–	–	–	–
C[C@H](CCC(=O)O)[C@H]1CC[C@H]2[C@@H]3[C@H](O)[C@H](O)[C@@H]4C[C@H](O)CC[C@]4(C)[C@H]3CC[C@]12C [HYOCHOLIC ACID]	109	–	18	64	7	92	54	–	–	–	–	–	–	–
C[C@H](CCC(=O)O)[C@H]1CC[C@H]2[C@@H]3C[C@H](O)[C@@H]4C[C@H](O)CC[C@]4(C)[C@H]3CC[C@]12C [HYODEOXYCHOLIC_ACID]	40.9	22	21	94	1	97	67	–	–	–	–	–	–	–
C[C@H](CCC(=O)O)[C@H]1CC[C@H]2[C@@H]3CC[C@@H]4C[C@H](O)CC[C@]4(C)[C@H]3CC[C@]12C [LITHOCHOLIC ACID]	26.9	98	22	100	5	100	85	–	–	–	–	–	–	–
C=C[C@H]1CN2CC[C@H]1C[C@@H]2[C@@H](O)c1ccnc2ccc(OC)cc12 [QUINIDINE]	0.194	–	–	–	–	–	–	34.8	–	–	–	–	–	–
C=C[C@H]1CN2CC[C@H]1C[C@H]2[C@H](O)c1ccnc2ccc(OC)cc12 [QUININE]	0.633	–	–	–	–	–	–	20.2	–	–	–	–	1	–
